The source made the active and inactive calls.
What was measured:
[1] = target: T1, Short transient receptor potential channel 4 (Mus musculus, UniProt Q9QUQ5); experiment: calcium entry via TRPC4 opening agents – cell-based, HEK293 TRPC4/mu-opioid, Fluo-4 calcium, dose response (AID 434937); format: functional
T1 sequence (Q9QUQ5 whole entry): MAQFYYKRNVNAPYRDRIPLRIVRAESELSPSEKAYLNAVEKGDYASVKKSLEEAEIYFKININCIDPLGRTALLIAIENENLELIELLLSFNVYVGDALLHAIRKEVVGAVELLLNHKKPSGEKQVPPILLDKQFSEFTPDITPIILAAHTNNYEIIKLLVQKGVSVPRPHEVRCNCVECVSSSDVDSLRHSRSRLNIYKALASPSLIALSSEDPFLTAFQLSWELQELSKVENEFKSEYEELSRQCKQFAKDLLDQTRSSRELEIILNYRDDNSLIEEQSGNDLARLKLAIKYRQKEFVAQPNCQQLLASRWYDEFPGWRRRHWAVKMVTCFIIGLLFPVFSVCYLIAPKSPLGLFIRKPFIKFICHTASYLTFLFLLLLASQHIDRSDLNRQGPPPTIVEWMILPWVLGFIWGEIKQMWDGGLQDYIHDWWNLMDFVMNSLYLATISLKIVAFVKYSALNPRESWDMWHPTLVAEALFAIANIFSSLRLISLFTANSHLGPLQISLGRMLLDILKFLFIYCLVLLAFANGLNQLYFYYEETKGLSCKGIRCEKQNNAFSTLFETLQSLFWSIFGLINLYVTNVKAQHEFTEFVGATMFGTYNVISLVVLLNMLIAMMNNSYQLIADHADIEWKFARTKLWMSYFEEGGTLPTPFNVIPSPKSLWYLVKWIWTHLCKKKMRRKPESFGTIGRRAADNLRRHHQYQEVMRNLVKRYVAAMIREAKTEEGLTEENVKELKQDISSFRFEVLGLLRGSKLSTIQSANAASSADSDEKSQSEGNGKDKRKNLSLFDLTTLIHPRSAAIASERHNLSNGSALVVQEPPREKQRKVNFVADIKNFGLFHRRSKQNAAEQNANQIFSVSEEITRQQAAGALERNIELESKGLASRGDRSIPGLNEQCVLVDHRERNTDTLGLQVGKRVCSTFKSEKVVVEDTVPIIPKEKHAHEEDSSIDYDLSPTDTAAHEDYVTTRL

[2] = tested on: Streptococcus sp. 'group A'; experiment: Streptococcus pyogenes SK(-)GAS viability under kanamycin – luminescence, BacTiterGlo, confirmation, counter-screen for streptokinase expression inhibitor project, dose response (AID 1900); format: functional, organism-based
[3] = target: T2, Streptokinase A (Streptococcus pyogenes serotype M1, UniProt P10520); experiment: viability-normalized secreted streptokinase activity reduction – plasminogen activation absorbance, OD405, dose response (AID 1914); format: functional, Streptococcus pyogenes M1 GAS;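 note: secreted streptokinase activity via plasminogen activation per viability signal from cell pellet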
T2 sequence (P10520 whole entry): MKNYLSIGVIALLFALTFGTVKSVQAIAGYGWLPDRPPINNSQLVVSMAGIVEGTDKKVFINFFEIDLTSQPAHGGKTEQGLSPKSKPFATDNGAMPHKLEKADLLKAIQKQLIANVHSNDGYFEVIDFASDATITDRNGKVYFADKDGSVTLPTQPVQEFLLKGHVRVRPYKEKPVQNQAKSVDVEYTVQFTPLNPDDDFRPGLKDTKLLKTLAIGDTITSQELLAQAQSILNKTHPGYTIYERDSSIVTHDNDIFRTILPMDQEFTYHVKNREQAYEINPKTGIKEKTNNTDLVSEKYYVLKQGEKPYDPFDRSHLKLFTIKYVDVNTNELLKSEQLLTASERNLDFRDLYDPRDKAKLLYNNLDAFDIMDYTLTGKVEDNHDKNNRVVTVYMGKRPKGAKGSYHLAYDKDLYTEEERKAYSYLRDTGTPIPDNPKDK

[4] = tested on: Streptococcus; experiment: GAS UMAA2166 growth inhibition – luminescence, BacTiterGlo, counter-screen for streptokinase expression inhibitor project, dose response (AID 1915); format: functional, organism-based;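 note: potency for reduction of bacterial viability or growth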
[5] = THP-1 cell cytotoxicity, dose response, cytotoxicity control for non-replicating M. tuberculosis project (AID 489025); format: functional
[6] = Vero E6 cell cytotoxicity, dose response, cytotoxicity control for non-replicating M. tuberculosis project, secondary assay (AID 492998); format: functional, VeroE6; details: Vero C1008
[7] = cells; format: functional
[8] = target: T3, Aminopeptidase N (Plasmodium falciparum FcB1/Columbia, UniProt O96935); experiment: malaria alanyl aminopeptidase activity blockers – biochemical, fluorogenic H-Leu-NHMec substrate, 1536-well (AID 1445); set-up: species or system Plasmodium falciparum 3D7, 3D7
T3 sequence (O96935 whole entry): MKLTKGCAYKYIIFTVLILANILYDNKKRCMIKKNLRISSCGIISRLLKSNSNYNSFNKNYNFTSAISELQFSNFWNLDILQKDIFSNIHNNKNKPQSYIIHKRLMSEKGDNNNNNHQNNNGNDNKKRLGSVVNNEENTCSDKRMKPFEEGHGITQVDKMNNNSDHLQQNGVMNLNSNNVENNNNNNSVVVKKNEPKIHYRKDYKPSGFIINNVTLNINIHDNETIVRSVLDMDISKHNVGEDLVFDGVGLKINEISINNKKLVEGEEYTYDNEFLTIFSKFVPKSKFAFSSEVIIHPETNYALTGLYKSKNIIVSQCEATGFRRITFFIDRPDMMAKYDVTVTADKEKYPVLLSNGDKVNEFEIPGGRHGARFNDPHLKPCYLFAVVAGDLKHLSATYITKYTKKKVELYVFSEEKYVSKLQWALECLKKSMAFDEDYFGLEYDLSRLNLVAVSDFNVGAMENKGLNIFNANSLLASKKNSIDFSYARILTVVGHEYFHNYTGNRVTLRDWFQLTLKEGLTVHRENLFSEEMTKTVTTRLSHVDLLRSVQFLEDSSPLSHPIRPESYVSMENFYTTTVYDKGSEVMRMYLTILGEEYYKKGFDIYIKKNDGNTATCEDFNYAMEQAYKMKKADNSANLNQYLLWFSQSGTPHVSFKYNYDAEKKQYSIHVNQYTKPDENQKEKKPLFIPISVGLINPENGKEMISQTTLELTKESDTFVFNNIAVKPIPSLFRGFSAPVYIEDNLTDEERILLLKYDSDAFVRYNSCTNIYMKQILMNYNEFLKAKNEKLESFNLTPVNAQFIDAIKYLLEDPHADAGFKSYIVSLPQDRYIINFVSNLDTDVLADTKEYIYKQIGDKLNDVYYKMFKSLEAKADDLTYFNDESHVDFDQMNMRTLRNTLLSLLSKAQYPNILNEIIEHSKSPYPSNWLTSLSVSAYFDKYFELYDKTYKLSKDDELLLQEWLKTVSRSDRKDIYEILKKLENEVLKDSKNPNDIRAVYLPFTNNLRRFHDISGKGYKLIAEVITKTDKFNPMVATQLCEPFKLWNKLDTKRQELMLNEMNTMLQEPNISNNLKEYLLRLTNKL

[9] = target: T4, Voltage-gated N-type calcium channel alpha-1B subunit/Amyloid beta A4 precursor protein-binding family A member 1 (Homo sapiens, UniProt Q00975+Q02410); format: protein assay
[10] = target: T4, Voltage-gated N-type calcium channel alpha-1B subunit/Amyloid beta A4 precursor protein-binding family A member 1; format: protein assay; remark: listed apart in the source
[11] = target: Induced myeloid leukemia cell differentiation protein Mcl-1 (Homo sapiens, UniProt Q07820); format: functional
[12] = tested on: HEK293; experiment: inhibition of NOD1-driven NF-kB reporter – cell-based, luminescence, uHTS, primary screen (AID 1578); format: functional; details: Homo sapiens
[13] = tested on: HEK293; experiment: cells; format: functional, cell-based; details: Homo sapiens
[14] = tested on: HEK293; experiment: cells; format: functional, cell-based; details: Homo sapiens; remark: listed apart in the source
[15] = target: Nucleotide-binding oligomerization domain-containing protein 2 (Homo sapiens, UniProt Q9HC29); experiment: inhibition of NOD2-driven NF-kB reporter – cell-based, luminescence, uHTS, HEK293 (AID 1566); format: functional
[16] = tested on: HEK293; experiment: NOD2 signaling inhibitors in MDP-stimulated cells, cell-based, uHTS, luminescence (AID 2001); format: functional; details: Homo sapiens
[17] = Trypanosoma cruzi growth suppression in host cells – NIH3T3 host cells, beta-gal luminescence, confirmation (AID 2044); format: functional, cell-based;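 note: intracellular parasites grown in NIH/3T3 mouse fibroblasts as host cells; luminescent beta-galactosidase reporter signal from transgenic T. cruzi replicating inside host cells; inhibitors lower the luminescence signal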
[18] = NIH3T3 cell viability loss – ATP luminescence, mouse fibroblasts, counter-screen, dose response (AID 2010); format: functional, cell-based;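 note: cells exposed to compound for about 90 hours before reading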
[19] = viability of uninfected HEp-2 cells – cell-based, HTS, cytotoxicity control for RSV inhibitor project, dose response (AID 2410); format: functional; details: human respiratory syncytial virus
[20] = target: T5, X-box-binding protein 1 (Homo sapiens, UniProt P17861); format: functional, Cricetulus griseus;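 note: confirmatory dose-response counter-screen serving a CHOP assay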
T5 sequence (P17861 whole entry): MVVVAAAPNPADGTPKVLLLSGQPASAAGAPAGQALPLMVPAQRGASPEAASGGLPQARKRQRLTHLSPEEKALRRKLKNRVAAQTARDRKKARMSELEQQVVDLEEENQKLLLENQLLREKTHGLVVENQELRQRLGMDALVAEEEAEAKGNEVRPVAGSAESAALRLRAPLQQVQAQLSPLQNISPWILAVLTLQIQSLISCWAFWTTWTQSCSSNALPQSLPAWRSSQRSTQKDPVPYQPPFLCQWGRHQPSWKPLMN

[21] = target: Cytochrome P450 2C9 (Homo sapiens, UniProt P11712)
[22] = target: T6, Carboxy-terminal domain RNA polymerase II polypeptide A small phosphatase 1 (Homo sapiens, UniProt Q9GZU7); experiment: CTDSP1 inhibitors, concentration-response, biochemical, absorbance readout, ultra-high-throughput screen actives (AID 540297); format: functional
T6 sequence (Q9GZU7 whole entry): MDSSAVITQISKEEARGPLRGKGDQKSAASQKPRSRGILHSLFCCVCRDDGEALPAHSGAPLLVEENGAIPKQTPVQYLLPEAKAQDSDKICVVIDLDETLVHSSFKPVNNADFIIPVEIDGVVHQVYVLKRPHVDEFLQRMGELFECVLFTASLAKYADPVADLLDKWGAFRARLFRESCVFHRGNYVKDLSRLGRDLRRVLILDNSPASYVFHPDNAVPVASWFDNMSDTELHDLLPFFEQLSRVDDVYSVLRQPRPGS

[23] = target: Cytochrome P450 2C19 (Homo sapiens, UniProt P33261); experiment: Cytochrome panel assay with activity outcomes. Panel member name: p450-cyp2c19 Compounds with AC50 equal or less than 10 uM are considered active; format: functional
[24] = target: Cytochrome P450 2D6 (Homo sapiens, UniProt P10635);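 note: CYP2D6 member of a cytochrome P450 panel assay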
[25] = target: T7, Cytochrome P450 1A2 (Homo sapiens, UniProt P05177);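 note: PubChem cytochrome P450 panel assay, CYP1A2 panel member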
T7 sequence (P05177 whole entry): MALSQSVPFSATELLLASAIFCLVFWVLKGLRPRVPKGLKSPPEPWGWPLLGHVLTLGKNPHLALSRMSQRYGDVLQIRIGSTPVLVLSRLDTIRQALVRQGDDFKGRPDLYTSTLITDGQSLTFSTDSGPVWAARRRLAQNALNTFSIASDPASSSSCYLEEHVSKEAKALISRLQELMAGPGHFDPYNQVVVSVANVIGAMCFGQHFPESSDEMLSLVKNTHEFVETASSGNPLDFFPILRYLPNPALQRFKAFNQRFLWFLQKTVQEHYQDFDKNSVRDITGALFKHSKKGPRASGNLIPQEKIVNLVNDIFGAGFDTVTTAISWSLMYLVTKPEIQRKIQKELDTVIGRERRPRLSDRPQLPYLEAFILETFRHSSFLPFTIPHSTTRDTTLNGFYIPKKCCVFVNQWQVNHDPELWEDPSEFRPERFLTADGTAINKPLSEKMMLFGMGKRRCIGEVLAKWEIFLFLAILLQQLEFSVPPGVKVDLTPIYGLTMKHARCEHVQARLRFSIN

Sequence of Cytochrome P450 2C9 (P11712 whole entry, the tested form may be a part): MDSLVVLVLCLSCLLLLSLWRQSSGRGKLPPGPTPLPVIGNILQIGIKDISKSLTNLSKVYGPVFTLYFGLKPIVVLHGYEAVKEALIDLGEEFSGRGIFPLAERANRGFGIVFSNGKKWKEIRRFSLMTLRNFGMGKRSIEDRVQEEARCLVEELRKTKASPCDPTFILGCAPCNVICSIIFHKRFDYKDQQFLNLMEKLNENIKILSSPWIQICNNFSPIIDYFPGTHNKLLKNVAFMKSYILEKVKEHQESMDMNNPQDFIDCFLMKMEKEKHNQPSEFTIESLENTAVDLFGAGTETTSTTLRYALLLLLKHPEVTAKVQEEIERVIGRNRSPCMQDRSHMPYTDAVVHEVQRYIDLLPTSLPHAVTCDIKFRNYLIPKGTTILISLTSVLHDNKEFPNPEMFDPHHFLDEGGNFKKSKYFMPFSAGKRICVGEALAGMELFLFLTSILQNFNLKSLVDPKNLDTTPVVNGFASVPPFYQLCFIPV
T4 sequence (Q00975 whole entry): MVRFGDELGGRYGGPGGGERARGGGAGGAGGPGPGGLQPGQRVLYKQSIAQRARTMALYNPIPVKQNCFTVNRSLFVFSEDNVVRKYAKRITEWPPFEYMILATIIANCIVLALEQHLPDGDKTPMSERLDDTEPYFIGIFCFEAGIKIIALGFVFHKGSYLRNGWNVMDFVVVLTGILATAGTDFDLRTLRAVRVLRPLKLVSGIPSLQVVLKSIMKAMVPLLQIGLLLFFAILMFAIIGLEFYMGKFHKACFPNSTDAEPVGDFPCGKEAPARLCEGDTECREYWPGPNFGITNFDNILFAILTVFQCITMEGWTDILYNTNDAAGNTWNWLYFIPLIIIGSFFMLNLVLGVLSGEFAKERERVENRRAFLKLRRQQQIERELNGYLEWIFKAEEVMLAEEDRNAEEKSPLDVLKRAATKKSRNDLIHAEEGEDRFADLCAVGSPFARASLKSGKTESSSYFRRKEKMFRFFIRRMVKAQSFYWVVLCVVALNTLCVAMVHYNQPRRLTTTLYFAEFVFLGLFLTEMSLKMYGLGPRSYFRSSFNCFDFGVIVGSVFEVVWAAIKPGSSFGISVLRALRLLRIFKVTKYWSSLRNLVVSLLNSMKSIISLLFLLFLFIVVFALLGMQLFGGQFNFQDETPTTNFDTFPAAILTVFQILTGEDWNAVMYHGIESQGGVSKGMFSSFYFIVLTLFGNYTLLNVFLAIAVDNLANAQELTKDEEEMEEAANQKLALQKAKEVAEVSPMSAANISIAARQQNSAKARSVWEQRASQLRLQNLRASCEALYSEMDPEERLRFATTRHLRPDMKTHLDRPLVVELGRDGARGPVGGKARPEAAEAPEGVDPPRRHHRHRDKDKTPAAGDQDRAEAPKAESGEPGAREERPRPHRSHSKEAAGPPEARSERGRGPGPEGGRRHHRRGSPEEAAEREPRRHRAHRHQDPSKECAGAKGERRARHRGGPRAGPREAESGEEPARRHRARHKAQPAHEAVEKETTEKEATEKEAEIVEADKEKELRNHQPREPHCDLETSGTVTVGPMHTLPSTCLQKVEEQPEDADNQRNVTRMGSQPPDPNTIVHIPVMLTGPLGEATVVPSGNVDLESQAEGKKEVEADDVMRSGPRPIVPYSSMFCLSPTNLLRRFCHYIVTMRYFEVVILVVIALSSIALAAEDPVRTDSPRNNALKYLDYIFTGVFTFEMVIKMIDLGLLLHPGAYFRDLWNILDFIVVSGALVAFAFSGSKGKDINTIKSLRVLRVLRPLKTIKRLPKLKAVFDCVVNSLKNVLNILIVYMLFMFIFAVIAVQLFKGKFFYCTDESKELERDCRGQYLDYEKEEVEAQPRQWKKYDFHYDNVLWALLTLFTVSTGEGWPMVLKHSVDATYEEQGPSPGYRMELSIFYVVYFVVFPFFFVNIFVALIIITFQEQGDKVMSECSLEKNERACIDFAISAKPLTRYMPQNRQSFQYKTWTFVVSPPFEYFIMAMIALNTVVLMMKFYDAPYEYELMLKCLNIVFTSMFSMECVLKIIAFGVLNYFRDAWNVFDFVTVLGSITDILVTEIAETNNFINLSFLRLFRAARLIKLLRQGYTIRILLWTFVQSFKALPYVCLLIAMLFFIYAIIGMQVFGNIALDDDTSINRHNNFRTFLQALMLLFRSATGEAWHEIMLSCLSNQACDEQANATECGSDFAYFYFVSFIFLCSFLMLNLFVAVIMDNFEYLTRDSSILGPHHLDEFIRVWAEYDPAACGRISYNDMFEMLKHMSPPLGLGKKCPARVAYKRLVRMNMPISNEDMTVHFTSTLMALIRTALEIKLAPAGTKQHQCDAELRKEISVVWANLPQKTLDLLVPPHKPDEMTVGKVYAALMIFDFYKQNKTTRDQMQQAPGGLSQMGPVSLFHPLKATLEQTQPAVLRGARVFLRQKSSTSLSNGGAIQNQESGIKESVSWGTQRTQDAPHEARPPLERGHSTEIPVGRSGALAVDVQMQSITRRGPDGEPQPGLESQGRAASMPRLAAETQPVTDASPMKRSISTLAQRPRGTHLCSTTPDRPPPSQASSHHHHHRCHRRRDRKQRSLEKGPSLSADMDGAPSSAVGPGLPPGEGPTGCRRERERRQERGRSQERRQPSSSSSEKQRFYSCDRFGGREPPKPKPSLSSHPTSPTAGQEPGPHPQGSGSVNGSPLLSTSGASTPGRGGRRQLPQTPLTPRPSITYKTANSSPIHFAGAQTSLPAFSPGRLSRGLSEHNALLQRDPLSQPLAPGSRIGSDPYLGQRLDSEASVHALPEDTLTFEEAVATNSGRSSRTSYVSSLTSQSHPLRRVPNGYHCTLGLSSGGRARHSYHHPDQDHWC
T4 sequence (Q02410 whole entry): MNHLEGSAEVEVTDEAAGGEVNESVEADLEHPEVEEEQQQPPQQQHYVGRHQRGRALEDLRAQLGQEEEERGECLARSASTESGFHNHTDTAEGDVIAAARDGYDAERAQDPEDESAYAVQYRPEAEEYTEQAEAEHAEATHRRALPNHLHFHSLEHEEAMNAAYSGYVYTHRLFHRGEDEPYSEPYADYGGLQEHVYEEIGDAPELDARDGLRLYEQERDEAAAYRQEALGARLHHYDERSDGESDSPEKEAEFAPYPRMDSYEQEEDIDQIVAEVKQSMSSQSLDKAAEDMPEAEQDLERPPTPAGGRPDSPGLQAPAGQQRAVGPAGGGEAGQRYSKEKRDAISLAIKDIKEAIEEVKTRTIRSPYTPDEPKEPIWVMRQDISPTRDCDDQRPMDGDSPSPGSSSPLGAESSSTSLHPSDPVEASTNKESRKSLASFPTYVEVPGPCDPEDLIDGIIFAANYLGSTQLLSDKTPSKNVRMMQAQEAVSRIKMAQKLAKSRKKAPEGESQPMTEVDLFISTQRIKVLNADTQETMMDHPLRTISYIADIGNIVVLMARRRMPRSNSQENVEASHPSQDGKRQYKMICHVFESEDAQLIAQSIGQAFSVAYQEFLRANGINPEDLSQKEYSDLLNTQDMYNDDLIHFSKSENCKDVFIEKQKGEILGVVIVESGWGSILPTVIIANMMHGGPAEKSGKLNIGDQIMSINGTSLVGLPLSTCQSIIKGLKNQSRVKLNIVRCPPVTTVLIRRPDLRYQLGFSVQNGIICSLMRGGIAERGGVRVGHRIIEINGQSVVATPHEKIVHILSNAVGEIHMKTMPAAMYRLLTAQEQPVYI
Sequence of Cytochrome P450 2C19 (P33261 whole entry): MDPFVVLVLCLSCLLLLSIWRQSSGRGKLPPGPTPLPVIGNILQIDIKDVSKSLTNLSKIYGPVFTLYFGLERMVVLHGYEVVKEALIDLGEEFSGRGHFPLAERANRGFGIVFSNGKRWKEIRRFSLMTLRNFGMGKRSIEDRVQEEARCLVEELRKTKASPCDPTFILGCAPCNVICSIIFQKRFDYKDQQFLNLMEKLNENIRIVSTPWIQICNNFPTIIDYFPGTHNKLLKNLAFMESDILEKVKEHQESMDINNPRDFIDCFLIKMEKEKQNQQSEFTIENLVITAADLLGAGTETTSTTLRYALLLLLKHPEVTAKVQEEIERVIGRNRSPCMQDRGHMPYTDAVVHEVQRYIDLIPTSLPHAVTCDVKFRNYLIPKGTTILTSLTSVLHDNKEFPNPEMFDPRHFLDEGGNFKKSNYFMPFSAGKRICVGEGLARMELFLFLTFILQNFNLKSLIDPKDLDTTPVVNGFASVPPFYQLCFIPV
Sequence of Induced myeloid leukemia cell differentiation protein Mcl-1 (Q07820 whole entry): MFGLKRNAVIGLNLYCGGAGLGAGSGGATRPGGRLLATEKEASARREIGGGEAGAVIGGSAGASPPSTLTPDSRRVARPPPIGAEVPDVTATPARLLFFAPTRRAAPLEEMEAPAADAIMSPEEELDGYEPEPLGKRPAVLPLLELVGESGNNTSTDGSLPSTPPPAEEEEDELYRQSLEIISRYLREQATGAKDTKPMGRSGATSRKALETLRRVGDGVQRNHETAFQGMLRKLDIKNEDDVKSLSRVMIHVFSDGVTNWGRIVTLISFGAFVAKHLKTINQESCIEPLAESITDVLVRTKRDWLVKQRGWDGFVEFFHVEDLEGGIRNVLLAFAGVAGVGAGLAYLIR
Sequence of Cytochrome P450 2D6 (P10635 whole entry): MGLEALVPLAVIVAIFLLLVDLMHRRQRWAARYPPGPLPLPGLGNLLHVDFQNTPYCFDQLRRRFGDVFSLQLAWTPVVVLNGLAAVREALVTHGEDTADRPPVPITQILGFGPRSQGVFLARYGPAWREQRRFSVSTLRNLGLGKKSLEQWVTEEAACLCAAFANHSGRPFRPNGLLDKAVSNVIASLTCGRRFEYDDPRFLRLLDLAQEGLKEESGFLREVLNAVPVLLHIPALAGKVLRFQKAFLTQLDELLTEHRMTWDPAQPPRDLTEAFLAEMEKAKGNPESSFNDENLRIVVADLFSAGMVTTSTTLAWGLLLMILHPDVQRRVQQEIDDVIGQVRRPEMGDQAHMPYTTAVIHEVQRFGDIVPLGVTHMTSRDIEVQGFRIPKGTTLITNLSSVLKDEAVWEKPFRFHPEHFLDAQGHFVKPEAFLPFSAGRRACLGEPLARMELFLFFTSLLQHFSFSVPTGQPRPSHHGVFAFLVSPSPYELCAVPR

Cc1cc(NC(=O)CN2CCc3ccccc3C2)nc2c1c(=O)oc1ccccc12
EC50 [1]: 1.19 µM (active)

O=C(CC(=O)c1cc(Cl)ccc1O)c1ccccc1
EC50 [2]: 1.08 µM (active)
EC50 [3]: > 150 µM (not active)
EC50 [4]: 10.8 µM (active)
CC50 [5]: 14.6 µM (active)
CC50 [6]: 8.73 µM (active)
IC50 [7]: 9.73 µM (active)

COc1ccc(C(=O)Nc2cccc(/C=C(\CCC(=O)O)c3nc4ccccc4s3)c2)cc1
IC50 [8]: 21.8 µM (active)
EC50 [2]: 7.83 µM (active)
IC50 [9]: 4.28 µM (active)
EC50 [3]: > 50 µM (not active)
IC50 [10]: > 50 µM (inactive)
IC50 [11]: 4.32 µM (active)
EC50 [4]: 22.9 µM (active)

COc1cc(OC)c(OC)cc1/C=C1\CCC/C(=C\c2cc(OC)c(OC)cc2OC)C1=O
EC50 [12]: 15.5 µM (active)
IC50 [13]: 5.03 µM (active)
IC50 [14]: 18.1 µM (active)
EC50 [15]: 13 µM (active)
IC50 [16]: 6.27 µM (active)
EC50 [17]: 1.51 µM (active)
EC50 [18]: 6.67 µM (active)

Fc1ccc(-c2nn(-c3ccccc3)cc2CNCc2ccccc2)cc1
CC50 [19]: 17.9 µM (active)
CC50 [5]: 26 µM (active)
EC50 [1]: 5.31 µM (active)
Absolute IC50 (XBP1) [20]: 10 µM
IC50 [7]: 21.6 µM (active)

O=C(Nc1nc2ccccc2[nH]1)c1cccc(Cl)c1
EC50 [2]: 8.88 µM (active)
EC50 [3]: > 150 µM (not active)
EC50 [4]: 69.4 µM (active)
CC50 [5]: > 40 µM (active)
CC50 [6]: > 20 µM (active)
IC50 [7]: 7.11 µM (active)

CCc1ccccc1N=C(S)NCc1ccc2c(c1)OCO2
AC50 [21]: inconclusive

COCCn1c(=O)c(C)nc2cnc(N3CCN(C)CC3)nc21
AC50 [21]: inconclusive

CCNc1nc(NCC)n2c(SCC(=O)Nc3ccc(OC(F)F)cc3)nnc2n1
IC50 [22]: 9.83 µM (active)

CN(CCc1nc2cc(Cl)ccc2[nH]1)Cc1nc(CC2CC2)no1
EC50 [1]: 5.31 µM (active)

CCCC12CN3CC(CCC)(CN(C1)C3C(O)C(O)C(O)CO)C2=O (centres undefined)
AC50 [23]: inconclusive
AC50 [21]: inconclusive

CCc1ccc(Nc2nnc(SCC(=O)NC(=O)CN3CCCC3=O)s2)cc1
IC50 [22]: 15 µM (active)

O=[N+]([O-])c1ccc(Cl)c(/C=N/N2CCN(Cc3ccccc3Cl)CC2)c1
AC50 [24]: 7.94 µM (inconclusive)
AC50 [25]: 2.51 µM (inconclusive)
AC50 [21]: inconclusive

O=S(=O)(c1ccc(Cl)cc1)N1CCN2CCCC2C1 (centres undefined)
EC50 [1]: 4.73 µM (active)

CCc1cccc(CC)c1N=C(S)NCC(c1cccnc1)N(C)C (centres undefined)
EC50 [1]: 0.168 µM (active)
